Laboratory results: ChEMBL document CHEMBL3616377, “2-(3'-Indolyl)-N-arylthiazole-4-carboxamides: Synthesis and evaluation of antibacterial and anticancer activities” (Bioorg Med Chem Lett, 2015)
Converted amounts (≈) assume the structure as drawn. The source made the active and inactive calls. No cut-off for these calls is given here.

Tests used:
[1] = Cytotoxicity against human castration-resistant C4-2 cells after 48 hrs by MTT assay in absence of 10% FBS; format: functional, cell-based; conditions: LNCaP C4-2, 48 h
MDA-MB-231 [2] = assay: Cytotoxicity against human MDA-MB-231 cells after 48 hrs by MTT assay in presence of 10% FBS; format: functional, cell-based; conditions: MDA-MB-231, 48 h
PC-3 [3] = assay: Cytotoxicity against human PC3 cells after 48 hrs by MTT assay in absence of 10% FBS; format: functional, cell-based; conditions: PC-3, 48 h
Escherichia coli [4] = assay: Antibacterial activity against Escherichia coli MTCC 1652 after 18 to 24 hrs by broth microdilution method; format: functional
Escherichia coli [5] = assay: Antibacterial activity against Escherichia coli MTCC 1652 after 18 to 24 hrs by agar well diffusion method; format: functional
LNCaP [6] = assay: Cytotoxicity against human LNCAP cells after 48 hrs by MTT assay in presence of 10% FBS; format: functional, cell-based
Pseudomonas putida [7] = assay: Antibacterial activity against Pseudomonas putida MTCC 102 after 18 to 24 hrs by broth microdilution method; format: functional
HeLa [8] = assay: Cytotoxicity against human HeLa cells after 48 hrs by MTT assay in absence of 10% FBS; format: functional, cell-based
HEK-293T [9] = assay: Cytotoxicity against human HEK293T cells after 48 hrs by MTT assay in absence of 10% FBS; format: cell-based
PC-3 [10] = assay: Cytotoxicity against human PC3 cells after 48 hrs by MTT assay in presence of 10% FBS; format: functional, cell-based; conditions: PC-3, 48 h
LNCaP [11] = assay: Cytotoxicity against human LNCAP cells after 48 hrs by MTT assay in absence of 10% FBS; format: functional, cell-based
HEK-293T [12] = assay: Cytotoxicity against human HEK293T cells after 48 hrs by MTT assay in presence of 10% FBS; format: cell-based
[13] = Cytotoxicity against human castration-resistant C4-2 cells after 48 hrs by MTT assay in presence of 10% FBS; format: functional, cell-based; conditions: LNCaP C4-2, 48 h
MDA-MB-231 [14] = assay: Cytotoxicity against human MDA-MB-231 cells after 48 hrs by MTT assay in absence of 10% FBS; format: functional, cell-based; conditions: MDA-MB-231, 48 h
HeLa [15] = assay: Cytotoxicity against human HeLa cells after 48 hrs by MTT assay in presence of 10% FBS; format: functional, cell-based
Pseudomonas putida [16] = assay: Antibacterial activity against Pseudomonas putida MTCC 102 after 18 to 24 hrs by agar well diffusion method; format: functional
Pseudomonas putida [17] = assay: Bactericidal activity against Pseudomonas putida MTCC 102 assessed as reduction of number of bacterial cells at 4 times MIC after 2 to 3 hrs; format: functional, organism-based
Bacillus subtilis [18] = assay: Antibacterial activity against Bacillus subtilis MTCC 121 after 18 to 24 hrs by agar well diffusion method; format: functional
[19] = Solubility of the compound in 0.05 to 0.1% DMSO; format: physicochemical
Staphylococcus aureus [20] = assay: Antibacterial activity against Staphylococcus aureus MTCC 96 after 18 to 24 hrs by broth microdilution method; format: functional
Pseudomonas putida [21] = assay: Bactericidal activity against Pseudomonas putida MTCC 102 assessed as reduction of number of bacterial cells at 4 times MIC after 1 to 6 hrs; format: functional, organism-based
Bacillus subtilis [22] = assay: Antibacterial activity against Bacillus subtilis MTCC 121 after 18 to 24 hrs by broth microdilution method; format: functional
Escherichia coli [23] = assay: Bactericidal activity against Escherichia coli MTCC 1652 assessed as reduction of number of bacterial cells at 4 times MIC after 2 to 3 hrs; format: functional, organism-based
Staphylococcus aureus [24] = assay: Antibacterial activity against Staphylococcus aureus MTCC 96 after 18 to 24 hrs by agar well diffusion method; format: functional
Escherichia coli [25] = assay: Bactericidal activity against Escherichia coli MTCC 1652 assessed as reduction of number of bacterial cells at 4 times MIC after 1 to 6 hrs; format: functional, organism-based
HeLa [26] = assay: Induction of apoptosis in human HeLa cells assessed as formation of apoptotic nuclei formation at 10 uM after 24 hrs using propidium iodide staining by fluorescence microscopy analysis; format: functional, cell-based

Row | Compound | IC50 [1] | IC50 (MDA-MB-231 [2]) | IC50 (PC-3 [3]) | MIC (Escherichia coli [4]) | inhibition zone (IZ) (Escherichia coli [5]) | IC50 (LNCaP [6]) | MIC (Pseudomonas putida [7]) | IC50 (HeLa [8]) | IC50 (HEK-293T [9]) | IC50 (PC-3 [10]) | IC50 (LNCaP [11]) | IC50 (HEK-293T [12]) | IC50 [13] | IC50 (MDA-MB-231 [14]) | IC50 (HeLa [15]) | inhibition zone (IZ) (Pseudomonas putida [16]) | inhibition zone (IZ) (Bacillus subtilis [18]) | MIC (Staphylococcus aureus [20]) | MIC (Bacillus subtilis [22]) | inhibition zone (IZ) (Staphylococcus aureus [24]) | also measured
1 | O=C(NCc1ccccc1)c1csc(-c2c[nH]c3ccccc23)n1 | > 100 µM | > 100 µM | > 100 µM | 100 µg/mL (≈ 300 µM) | 13 mm | > 100 µM | 100 µg/mL (≈ 300 µM) | 9.51 µM | > 100 µM | > 100 µM | > 100 µM | 74.5 µM | > 100 µM | > 100 µM | 41.4 µM | 13 mm |  |  |  |  | 
2 | COc1ccc(NC(=O)c2csc(-c3c[nH]c4ccc(Br)cc34)n2)cc1 |  |  |  | 12.5 µg/mL (≈ 29.2 µM) | 15 mm |  | 12.5 µg/mL (≈ 29.2 µM) |  |  |  |  |  |  |  |  | 16 mm | 15 mm | 50 µg/mL (≈ 117 µM) | 50 µg/mL (≈ 117 µM) | 14 mm | Activity (Pseudomonas putida [17]): Active; solubility [19]: Insoluble; Activity (Pseudomonas putida [21]): Active; Activity (Escherichia coli [23]): Active; Activity (Escherichia coli [25]): Active
3 | COc1ccc(NC(=O)c2csc(-c3c[nH]c4ccccc34)n2)cc1OC |  |  |  | 25 µg/mL (≈ 65.9 µM) | 16 mm |  | 25 µg/mL (≈ 65.9 µM) |  |  |  |  |  |  |  |  | 16 mm | 14 mm | 50 µg/mL (≈ 132 µM) | 50 µg/mL (≈ 132 µM) | 14 mm | solubility [19]: Insoluble
4 | COc1ccc(NC(=O)c2csc(-c3c[nH]c4ccccc34)n2)cc1 |  |  |  | 50 µg/mL (≈ 143 µM) | 14 mm |  | 100 µg/mL (≈ 286 µM) |  |  |  |  |  |  |  |  | 12 mm | 12 mm | 100 µg/mL (≈ 286 µM) | 100 µg/mL (≈ 286 µM) | 11 mm | solubility [19]: Insoluble
5 | COc1ccc(NC(=O)c2csc(-c3c[nH]c4ccc(F)cc34)n2)cc1 | > 100 µM | > 100 µM | > 100 µM | 50 µg/mL (≈ 136 µM) | 14 mm | 75.4 µM | 100 µg/mL (≈ 272 µM) | 3.41 µM | 12.1 µM | > 100 µM | 66.4 µM | > 100 µM | > 100 µM | 49.4 µM | 33.5 µM | 13 mm | 13 mm | 100 µg/mL (≈ 272 µM) | 100 µg/mL (≈ 272 µM) | 12 mm | 
6 | CN(C)c1ccc(NC(=O)c2csc(-c3c[nH]c4ccccc34)n2)cc1 |  |  |  | 100 µg/mL (≈ 276 µM) | 12 mm |  | 50 µg/mL (≈ 138 µM) |  |  |  |  |  |  |  |  | 14 mm | 14 mm | 100 µg/mL (≈ 276 µM) | 50 µg/mL (≈ 138 µM) | 13 mm | solubility [19]: Insoluble
7 | O=C(Nc1ccc(F)cc1)c1csc(-c2c[nH]c3ccccc23)n1 |  |  |  | 100 µg/mL (≈ 296 µM) | 13 mm |  | 100 µg/mL (≈ 296 µM) |  |  |  |  |  |  |  |  | 12 mm | 10 mm | 100 µg/mL (≈ 296 µM) | 100 µg/mL (≈ 296 µM) | 12 mm | solubility [19]: Insoluble
8 | COc1cc(NC(=O)c2csc(-c3cn(Cc4ccc(Cl)cc4)c4ccccc34)n2)cc(OC)c1OC | > 100 µM | > 100 µM | > 100 µM | 50 µg/mL (≈ 93.6 µM) | 15 mm | > 100 µM | 100 µg/mL (≈ 187 µM) | 91.4 µM | 58.7 µM | > 100 µM | 97.7 µM | > 100 µM | > 100 µM | > 100 µM | > 100 µM | 14 mm | 12 mm | 100 µg/mL (≈ 187 µM) | 100 µg/mL (≈ 187 µM) | 13 mm | 
9 | COc1ccc(NC(=O)c2csc(-c3cn(Cc4ccc(Cl)cc4)c4ccccc34)n2)cc1 | > 100 µM | > 100 µM | > 100 µM | 12.5 µg/mL (≈ 26.4 µM) | 16 mm | > 100 µM | 12.5 µg/mL (≈ 26.4 µM) | > 100 µM | > 100 µM | > 100 µM | > 100 µM | > 100 µM | > 100 µM | 84.9 µM | 90.9 µM | 16 mm | 15 mm | 100 µg/mL (≈ 211 µM) | 50 µg/mL (≈ 105 µM) | 14 mm | 
10 | O=C(Nc1ccccc1)c1csc(-c2c[nH]c3ccccc23)n1 | > 100 µM | > 100 µM | > 100 µM | 100 µg/mL (≈ 313 µM) | 13 mm | > 100 µM | 100 µg/mL (≈ 313 µM) | > 100 µM | 41.1 µM | > 100 µM | > 100 µM | > 100 µM | > 100 µM | 79.4 µM | > 100 µM | 13 mm |  | 50 µg/mL (≈ 157 µM) |  | 14 mm | 
11 | COc1cc(NC(=O)c2csc(-c3c[nH]c4ccccc34)n2)cc(OC)c1OC |  |  |  | 50 µg/mL (≈ 122 µM) | 14 mm |  | 100 µg/mL (≈ 244 µM) |  |  |  |  |  |  |  |  | 13 mm | 14 mm | 100 µg/mL (≈ 244 µM) | 50 µg/mL (≈ 122 µM) | 12 mm | solubility [19]: Insoluble
12 | COc1cc(NC(=O)c2csc(-c3c[nH]c4ccc(Br)cc34)n2)cc(OC)c1OC | > 100 µM | > 100 µM | > 100 µM | 50 µg/mL (≈ 102 µM) | 14 mm | > 100 µM | 12.5 µg/mL (≈ 25.6 µM) | 55.8 µM | > 100 µM | > 100 µM | > 100 µM | 32.8 µM | > 100 µM | > 100 µM | 93 µM | 16 mm | 16 mm | 50 µg/mL (≈ 102 µM) | 12.5 µg/mL (≈ 25.6 µM) | 15 mm | 
13 | O=C(Nc1ccccc1)c1csc(-c2cn(Cc3ccc(Cl)cc3)c3ccccc23)n1 | > 100 µM | > 100 µM | 76.4 µM | 50 µg/mL (≈ 113 µM) | 15 mm | 68.9 µM | 50 µg/mL (≈ 113 µM) | 24.3 µM | > 100 µM | > 100 µM | 64.1 µM | > 100 µM | > 100 µM | 50.5 µM | 32.1 µM | 15 mm | 13 mm | 100 µg/mL (≈ 225 µM) | 100 µg/mL (≈ 225 µM) | 12 mm | 
14 | O=C(O)c1cn(C2CC2)c2cc(N3CCNCC3)c(F)cc2c1=O [CIPROFLOXACIN] |  |  |  |  |  |  | 12.5 µg/mL (≈ 37.7 µM) |  |  |  |  |  |  |  |  | 21 mm | 24 mm |  | 6.25 µg/mL (≈ 18.9 µM) | 23 mm | 
15 | Cc1ccc(NC(=O)c2csc(-c3c[nH]c4ccccc34)n2)cc1 | > 100 µM | > 100 µM | > 100 µM | 100 µg/mL (≈ 300 µM) | 12 mm | > 100 µM | 100 µg/mL (≈ 300 µM) | > 100 µM | > 100 µM | > 100 µM | > 100 µM | > 100 µM | > 100 µM | > 100 µM | > 100 µM | 12 mm |  |  |  |  | 
16 | COc1cccc2c1C(=O)c1c(O)c3c(c(O)c1C2=O)C[C@@](O)(C(=O)CO)C[C@@H]3O[C@H]1C[C@H](N)[C@H](O)[C@H](C)O1 [DOXORUBICIN] | 1.02 µM |  | 7.65 µM |  |  | 7.4 µM |  |  | 0.84 µM | 9.8 µM | 6.46 µM | 0.75 µM | 0.57 µM | 6.03 µM |  |  |  |  |  |  | Activity (HeLa [26]): Active
17 | COc1cc(NC(=O)c2csc(-c3c[nH]c4ccc(F)cc34)n2)cc(OC)c1OC | > 100 µM | > 100 µM | 89 µM | 50 µg/mL (≈ 117 µM) | 14 mm | 88.5 µM | 50 µg/mL (≈ 117 µM) | > 100 µM | > 100 µM | > 100 µM | > 100 µM | 66 µM | > 100 µM | > 100 µM | 48.9 µM | 14 mm | 10 mm | 100 µg/mL (≈ 234 µM) | 100 µg/mL (≈ 234 µM) | 12 mm | 
